# Patent publication US20230040909A1 (priority 2019, published 2023)
# Like-named read-outs stand apart in the source and are kept apart here.
# Legend:
# [1] = test system: VERO Cell; test: VERO cell cytotoxicity; format: cell-based
# Text: (§1) The procedures described in Falzari 2005 were used to generate the data shown in column 2 of Table 4.
# [2] = test system: M. tb H37Rv; test: microbe, parasite or virus in culture; format: cell-based, Mycobacterium tuberculosis; settings: for MIC: Mycobacterium tuberculosis, H37RV, read-out: M. tb H37Rv: MIC-MABA
# [3] = test system: Mycobacterium abscessus; test: M. ab_ATCC MIC MHII; format: cell-based; settings: for MIC: Mycobacteroides abscessus, read-out: M. ab_ATCC: MIC MHII: MIC
# Text: The procedure described in Franz 2017 was used to generate the data shown in column 5 of Table 4.
# [4] = QTc (QTcV) prolongation in dogs after oral dosing, with plasma level at 1 hr; settings: for concentration at 1 h: dog, plasma, po; for Max. QTcv / QTcV @ 1 hr / C1 hr / corrected QT (QTc) prolongation in dogs: dogs; for Max. QTcv / QTcV @ 1 hr / C1 hr: PO; for QTcV @ 1 hr / C1 hr: 1 hr
# [5] = target: hERG (Homo sapiens, UniProt Q12809); test: biochemical
# Chain of hERG (Q12809 whole entry): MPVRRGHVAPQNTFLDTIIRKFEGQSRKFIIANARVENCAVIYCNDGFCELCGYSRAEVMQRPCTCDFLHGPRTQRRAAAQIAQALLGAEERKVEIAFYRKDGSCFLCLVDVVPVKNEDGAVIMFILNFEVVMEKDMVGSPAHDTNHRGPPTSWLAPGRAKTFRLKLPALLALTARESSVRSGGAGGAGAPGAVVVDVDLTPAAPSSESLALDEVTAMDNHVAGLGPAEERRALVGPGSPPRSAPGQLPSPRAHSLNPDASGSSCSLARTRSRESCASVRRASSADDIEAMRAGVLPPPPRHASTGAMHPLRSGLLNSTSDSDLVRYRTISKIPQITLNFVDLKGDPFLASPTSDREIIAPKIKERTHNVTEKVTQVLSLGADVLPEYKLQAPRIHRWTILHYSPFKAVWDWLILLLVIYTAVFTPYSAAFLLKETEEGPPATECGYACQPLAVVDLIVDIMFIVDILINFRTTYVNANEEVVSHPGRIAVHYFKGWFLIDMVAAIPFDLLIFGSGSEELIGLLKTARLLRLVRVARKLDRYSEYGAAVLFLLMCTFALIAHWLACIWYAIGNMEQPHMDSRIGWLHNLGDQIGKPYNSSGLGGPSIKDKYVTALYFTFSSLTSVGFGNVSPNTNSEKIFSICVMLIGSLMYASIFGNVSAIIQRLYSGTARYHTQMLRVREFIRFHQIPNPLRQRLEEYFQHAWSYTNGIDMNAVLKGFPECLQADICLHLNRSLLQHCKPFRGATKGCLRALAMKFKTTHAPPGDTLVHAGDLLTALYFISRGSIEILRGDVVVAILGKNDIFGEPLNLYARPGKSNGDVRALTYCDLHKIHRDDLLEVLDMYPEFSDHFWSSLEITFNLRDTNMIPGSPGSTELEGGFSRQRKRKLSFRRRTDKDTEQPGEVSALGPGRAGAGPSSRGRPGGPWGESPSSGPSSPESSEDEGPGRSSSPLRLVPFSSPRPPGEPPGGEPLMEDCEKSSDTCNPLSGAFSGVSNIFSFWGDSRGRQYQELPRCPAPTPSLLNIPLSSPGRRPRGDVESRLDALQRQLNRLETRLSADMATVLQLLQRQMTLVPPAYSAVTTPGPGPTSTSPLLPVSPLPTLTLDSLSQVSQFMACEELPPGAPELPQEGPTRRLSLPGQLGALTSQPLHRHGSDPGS
# [6] = target: hNav1.5 Late (Homo sapiens, UniProt Q14524); test: In vitro assessment of ion channels: hNav1.5 Late; format: biochemical
# [7] = target: hNav1.5 Peak (Homo sapiens, UniProt Q14524); test: In vitro assessment of ion channels: hNav1.5 Peak; format: biochemical
# Chain of hNav1.5 Peak (Q14524 whole entry): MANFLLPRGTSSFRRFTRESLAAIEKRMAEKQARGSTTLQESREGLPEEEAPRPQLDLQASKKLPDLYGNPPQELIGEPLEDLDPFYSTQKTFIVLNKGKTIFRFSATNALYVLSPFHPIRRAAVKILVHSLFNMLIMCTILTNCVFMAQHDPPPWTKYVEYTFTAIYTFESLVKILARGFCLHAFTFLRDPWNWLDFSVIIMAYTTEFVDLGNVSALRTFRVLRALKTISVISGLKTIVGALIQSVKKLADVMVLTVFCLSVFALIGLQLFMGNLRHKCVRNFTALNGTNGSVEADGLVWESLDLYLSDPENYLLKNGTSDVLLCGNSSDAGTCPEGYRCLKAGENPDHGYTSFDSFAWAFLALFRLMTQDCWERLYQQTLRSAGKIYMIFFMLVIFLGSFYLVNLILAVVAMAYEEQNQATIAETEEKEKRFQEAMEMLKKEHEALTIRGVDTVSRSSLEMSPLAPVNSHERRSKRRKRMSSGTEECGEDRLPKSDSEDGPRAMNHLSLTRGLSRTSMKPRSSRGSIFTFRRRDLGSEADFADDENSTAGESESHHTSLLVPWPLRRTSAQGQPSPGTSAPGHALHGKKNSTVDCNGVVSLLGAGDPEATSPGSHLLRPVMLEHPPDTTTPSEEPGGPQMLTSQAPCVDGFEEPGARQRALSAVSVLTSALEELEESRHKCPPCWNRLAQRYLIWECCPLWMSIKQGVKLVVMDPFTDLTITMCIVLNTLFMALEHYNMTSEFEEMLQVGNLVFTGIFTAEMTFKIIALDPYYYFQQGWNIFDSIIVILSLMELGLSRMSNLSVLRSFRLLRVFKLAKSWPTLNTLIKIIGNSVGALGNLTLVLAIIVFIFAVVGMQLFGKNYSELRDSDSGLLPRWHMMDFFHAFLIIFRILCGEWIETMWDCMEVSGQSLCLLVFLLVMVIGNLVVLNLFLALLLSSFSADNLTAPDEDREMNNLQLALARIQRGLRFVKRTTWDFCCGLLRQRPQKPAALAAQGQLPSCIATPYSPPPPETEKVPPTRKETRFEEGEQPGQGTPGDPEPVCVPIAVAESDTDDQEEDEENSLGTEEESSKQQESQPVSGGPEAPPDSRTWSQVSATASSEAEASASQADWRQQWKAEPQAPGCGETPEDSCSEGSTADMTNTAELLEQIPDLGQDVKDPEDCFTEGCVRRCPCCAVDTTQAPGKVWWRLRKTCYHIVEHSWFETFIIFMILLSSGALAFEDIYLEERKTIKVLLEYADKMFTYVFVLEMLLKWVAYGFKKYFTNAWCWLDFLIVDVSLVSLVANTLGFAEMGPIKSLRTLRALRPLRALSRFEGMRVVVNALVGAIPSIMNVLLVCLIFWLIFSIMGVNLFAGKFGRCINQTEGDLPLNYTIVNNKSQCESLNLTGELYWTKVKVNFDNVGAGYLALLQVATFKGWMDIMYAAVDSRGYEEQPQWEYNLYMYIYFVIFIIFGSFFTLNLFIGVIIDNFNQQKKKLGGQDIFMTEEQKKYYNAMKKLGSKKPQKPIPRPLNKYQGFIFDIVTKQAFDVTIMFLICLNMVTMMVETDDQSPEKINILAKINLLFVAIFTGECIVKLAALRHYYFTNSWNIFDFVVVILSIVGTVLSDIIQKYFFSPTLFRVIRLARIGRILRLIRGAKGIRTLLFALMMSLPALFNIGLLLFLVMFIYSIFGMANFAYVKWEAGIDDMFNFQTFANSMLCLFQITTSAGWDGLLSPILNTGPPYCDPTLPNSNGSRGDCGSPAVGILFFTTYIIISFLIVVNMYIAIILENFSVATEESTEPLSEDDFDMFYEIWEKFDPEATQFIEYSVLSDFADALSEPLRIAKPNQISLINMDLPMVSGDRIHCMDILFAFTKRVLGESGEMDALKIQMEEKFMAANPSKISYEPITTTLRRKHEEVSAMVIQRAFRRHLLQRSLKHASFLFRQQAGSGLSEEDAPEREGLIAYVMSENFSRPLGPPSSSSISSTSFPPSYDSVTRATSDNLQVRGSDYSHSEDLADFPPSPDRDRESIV
# [8] = target: hKCNQ1/MinK (Homo sapiens, UniProt P51787); test: biochemical; format: biochemical
# [9] = target: hCav1.2 (Homo sapiens, UniProt Q13936); test: biochemical
# [10] = VERO cell cytotoxicity; format: cell-based; settings: African green monkey, VERO cells
# Text: as §1
# [11] = test system: M. tb H37Rv; test: microbe, parasite or virus in culture; format: cell-based; settings: Mycobacterium tuberculosis, read-out: M. tb H37Rv: MIC-LORA
# [12] = test system: M. tb H37Rv; format: cell-based, Mycobacterium tuberculosis
# [13] = Table 3, read-out: hNav1.5 Late IC50
structure (smiles),measurement,setting,value
"Cc1cc(C)c2cc(C(=O)NC3CC[Si](C)(C)C3)[nH]c2c1 (single isomer, unassigned) [MPL-296A]",VERO Cell: Cytotoxicity-IC50,[1],>64 µg/mL
same,M. tb H37Rv: MIC-MABA,[2],0.0007- μg/mL
same,M. ab_ATCC: MIC MHII: MIC,[3],<0.063 µg/mL
"Cc1cc(C)c2cc(C(=O)NC3CC[Si](C)(C)C3)[nH]c2c1 (single isomer, unassigned) [MPL-296B]",VERO Cell: Cytotoxicity-IC50,[1],>64 µg/mL
same,M. tb H37Rv: MIC-MABA,[2],0.052- μg/mL
same,M. ab_ATCC: MIC MHII: MIC,[3],0.5 µg/mL
C[C@@H]1C(NC(=O)c2cc3c(F)cc(F)cc3[nH]2)CC2C[C@@H]1C2(C)C (stereo partly drawn) [JS-2-02],concentration at 1 h,[4]; 50 mg/kg,1200 ng/mL
same,Max. QTcv,[4]; 50 mg/kg,6.8 ms
same,QTcV @ 1 hr,[4]; 50 mg/kg,1.2 ms
same,Max. QTcv,[4]; 150 mg/kg,37 ms
same,C1 hr,[4]; 150 mg/kg,1100 ng/mL
same,QTcV @ 1 hr,[4]; 150 mg/kg,2.8 ms
same,IC50,"[5]; hERG IC50, Table 2",> 10 µM
same,IC50,"[6]; Table 2, read-out: hNav1.05 Late IC50",> 10 µM
same,IC50,[7]; Table 2,5.17 µM
same,IC50,[8]; Table 2,6.2 µM
same,IC50,[9]; Table 2,> 10 µM
"C[Si]1(C)CCC(NC(=O)c2cc3c(Cl)cc(Cl)cc3[nH]2)CC1 [MPL-203, 4,6-dichloro-N-(1,1-dimethylsilinan-4-yl)-1H-Indole-2-carboxamide]",IC50,[10],> 32 µg/mL
same,IC50,"[5]; hERG IC50, Table 3",> 10 µM
same,IC50,[6]; [13],> 10 µM
same,IC50,[7]; Table 3,> 10 µM
same,MIC,[11],> 32 µg/mL
same,hKCNQ1 channel inhibition,[8],do not inhibit the hKCNQ1 channel
same,IC50,[8]; Table 3,2.71 µM
same,MIC,[2],0.0033 µg/mL
same,MIC,[12],0.003 µg/mL
same,MIC,[3],> 64 µg/mL
same,IC50,[9]; Table 3,> 10 µM
"C[Si]1(C)CCC(NC(=O)c2cc3c(F)cc(F)cc3[nH]2)CC1 [MPL-204, N-(1,1-dimethylsilinan-4-yl)-4,6-difluoro-1H-indole-2-carboxamide]",IC50,[10],> 32 µg/mL
same,IC50,"[5]; hERG IC50, Table 3",> 10 µM
same,IC50,[6]; [13],> 10 µM
same,IC50,[7]; Table 3,> 10 µM
same,MIC,[11],> 32 µg/mL
same,hKCNQ1 channel inhibition,[8],do not inhibit the hKCNQ1 channel
same,IC50,[8]; Table 3,7.56 µM
same,MIC,[2],0.0035 µg/mL
same,MIC,[12],0.003 µg/mL
same,MIC,[3],> 64 µg/mL
same,IC50,[9]; Table 3,> 10 µM
"C[Si]1(C)CCC(NC(=O)c2cc3c(Br)cc(C(F)(F)F)cc3[nH]2)CC1 [MPL-339, 4-bromo-N-(1,1-dimethylsilinan-4-yl)-6-(trifluoromethyl)-1H-indole-2-carboxamide]",IC50,[10],> 20 µg/mL
same,MIC,[11],> 20 µg/mL
same,MIC,[2],< 0.004 µg/mL
same,MIC,[3],> 64 µg/mL
"Cc1cc(C#N)cc2[nH]c(C(=O)NC3CC[Si](C)(C)CC3)cc12 [MPL-340, 6-cyano-N-(1,1-dimethylsilinan-4-yl)-4-methyl-1H-indole-2-carboxamide]",IC50,[10],> 20 µg/mL
same,MIC,[11],> 20 µg/mL
same,MIC,[2],< 0.004 µg/mL
same,MIC,[3],> 64 µg/mL
"Cc1cc(C#N)c2cc(C(=O)NC3CC[Si](C)(C)CC3)[nH]c2c1 [MPL-344, 4-cyano-N-(1,1-dimethylsilinan-4-yl)-6-methyl-1H-indole-2-carboxamide]",IC50,[10],> 20 µg/mL
same,MIC,[11],> 20 µg/mL
same,MIC,[2],0.008 µg/mL
same,MIC,[3],> 64 µg/mL
"CC(C)Oc1cc(F)cc2[nH]c(C(=O)NC3CC[Si](C)(C)CC3)cc12 [MPL-383, N-(1,1-dimethylsilinan-4-yl)-6-fluoro-4-isopropoxy-1H-indole-2-carboxamide]",IC50,[10],> 20 µg/mL
same,MIC,[11],> 20 µg/mL
same,MIC,[2],0.0148 µg/mL
same,MIC,[3],> 64 µg/mL
"COCCOc1cc(F)cc2[nH]c(C(=O)NC3CC[Si](C)(C)CC3)cc12 [MPL-384, N-(1,1-dimethylsilinan-4-yl)-6-fluoro-4-(2-methoxyethoxy)-1H-indole-2-carboxamide]",IC50,[10],> 20 µg/mL
same,MIC,[11],9.36 µg/mL
same,MIC,[2],0.0308 µg/mL
same,MIC,[3],> 64 µg/mL
"Cc1cc(C(F)(F)F)c2cc(C(=O)NC3CC[Si](C)(C)CC3)[nH]c2c1 [MPL-385, N-(1,1-dimethylsilinan-4-yl)-6-methyl-4-(trifluoromethyl)-1H-indole-2-carboxamide]",IC50,[10],> 20 µg/mL
same,MIC,[11],12.7 µg/mL
same,MIC,[2],< 0.004 µg/mL
same,MIC,[3],64 µg/mL
"Cc1cc(C(F)(F)F)c2cc(C(=O)NC3CCC[Si](C)(C)CCC3)[nH]c2c1 [MPL-386, N-(1,1-dimethylsilocan-5-yl)-6-methyl-4-(trifluoromethyl)-1H-indole-2-carboxamide]",IC50,[10],> 20 µg/mL
same,MIC,[11],> 20 µg/mL
same,MIC,[2],< 0.004 µg/mL
same,MIC,[3],> 64 µg/mL
"C[Si]1(C)CCC(NC(=O)c2cc3c(F)cc(F)cc3[nH]2)C1 (stereo not drawn) [MPL-400, N-(1,1-dimethylsilolan-3-yl)-4,6-difluoro-1H-indole-2-carboxamide]",IC50,[10],> 20 µg/mL
same,MIC,[11],> 20 µg/mL
same,MIC,[2],0.0113 µg/mL
same,MIC,[3],> 64 µg/mL
"Cc1cc(F)c2cc(C(=O)NC3CC[Si](C)(C)CC3)[nH]c2c1 [MPL-470, N-(1,1-dimethylsilinan-4-yl)-4-fluoro-6-methyl-1H-indole-2-carboxamide]",IC50,[10],> 20 µg/mL
same,MIC,[11],> 20 µg/mL
same,MIC,[2],0.007 µg/mL
same,MIC,[3],> 64 µg/mL
CC1(C)CCC(NC(=O)c2cc3c(Cl)cc(Cl)cc3[nH]2)CC1 [NITD-304],concentration at 1 h,[4]; 150 mg/kg,300 ng/mL
same,corrected QT (QTc) prolongation in dogs,[4],dramatic corrected QT (QTc) prolongation
same,Max. QTcv,[4]; 50 mg/kg,49 ms
same,C1 hr,[4]; 50 mg/kg,250 ng/mL
same,QTcV @ 1 hr,[4]; 50 mg/kg,-0.6 ms
same,Max. QTcv,[4]; 150 mg/kg,120 ms
same,QTcV @ 1 hr,[4]; 150 mg/kg,0.3 ms
same,IC50,"[5]; hERG IC50, Table 2",> 10 µM
same,IC50,"[5]; hERG IC50, Table 3",> 10 µM
same,IC50,"[5]; hERG IC50, stated in text",> 50 µM
same,IC50,[6]; read-out: hNav1.05 Late IC50,6.4 µM
same,IC50,[7],> 10 µM
same,IC50,[8],0.71 µM
same,IC50,[9]; Table 2,2.01 µM
same,IC50,[9]; Table 3,2.01 µM
CC1(C)CCC(NC(=O)c2cc3c(F)cc(F)cc3[nH]2)CC1 [NITD-349],corrected QT (QTc) prolongation in dogs,[4],dramatic corrected QT (QTc) prolongation
same,Max. QTcv,[4]; 50 mg/kg,170 ms
same,C1 hr,[4]; 50 mg/kg,790 ng/mL
same,QTcV @ 1 hr,[4]; 50 mg/kg,11 ms
same,Max. QTcv,[4]; 150 mg/kg,170 ms
same,QTcV @ 1 hr,[4]; 150 mg/kg,13.6 ms
same,IC50,"[5]; hERG IC50, Table 2",> 10 µM
same,IC50,"[5]; hERG IC50, Table 3",> 10 µM
same,IC50,"[5]; hERG IC50, stated in text",> 50 µM
same,IC50,[6]; read-out: hNav1.05 Late IC50,> 10 µM
same,IC50,[6]; read-out: hNav1.5 Late IC50,> 10 µM
same,IC50,[7],> 10 µM
same,IC50,[8],0.058 µM
same,IC50,[9]; Table 2,9.53 µM
same,IC50,[9]; Table 3,9.5 µM
